# Assay results as given in patent US20120283293A1, “Methods of neuroprotection involving Prostaglandin E2 EP4 (PGE2 EP4) receptor activation” (The Board of Trustees of the Leland Stanford Junior …, priority 2011, published 2012).
# Tests used:
# BV-2 cells = experiment: Griess assay of nitrite production (NOS activity) in LPS-treated BV-2 cells; format: cell-based, murine
# Method: Nitric oxide synthase (NOS) activity was measured using the Griess assay to measure nitrite production (Promega, Madison, Wis.). BV-2 cells were plated at 5×10^4 cells/well in 24-well plates, allowed to reach 90% confluence, and incubated +/−LPS (10 ng/ml)+/−AE1-329 (1 nM-1 μM) or vehicle for 24 h. […] cell culture medium and nitrite standards ([…]) were transferred to a 96-well plate and mixed with 50 μl sulphanilamide solution and 50 μl NED solution. After a 10 min incubation at room temperature, absorbance was read at 530 nm on a SpectraMax M5 plate reader (Molecular Devices, Sunnyvale, Calif.). Experiments were repeated in triplicate.
# Inflammatory stimuli such as LPS can activate microglia through the CD14/TLR4 receptor complex and induce the expression of pro-inflammatory enzymes and cytokines (Fassbender et al., 2004; Walter et al., 2007). LPS-induced inflammatory responses were tested in the absence and presence of pharmacologic activation of EP4 receptor with the selective EP4 agonist AE1-329. BV-2 cells were treated with LPS (10 ng/ml) in the presence or absence of the selective EP4 agonist AE1-329 (1 μM) for 6 h, and pro-inflammatory gene expression was measured using qPCR (see FIG. 2). […] In FIG. 2D, EP4 regulation of iNOS activity was investigated.
# [1] = system: NF-κB subunits p65 and p50 in BV-2 cells; experiment: NF-κB p65/p50 nuclear translocation in LPS-stimulated BV-2 cells (Western, immunofluorescence); format: cell-based, murine
# Method: Nuclear and cytoplasmic fractions of BV-2 cells were prepared at several time points after treatment (0-120 minutes) using the nuclear extract kit from Active Motif (Carlsbad, Calif.). Briefly, cells were washed, collected in ice-cold PBS in the presence of phosphatase inhibitors, and centrifuged at 300×g for 5 min at 4° C. Cell pellets were resuspended in hypotonic buffer, treated with detergent, and centrifuged at 14,000×g for 30 sec at 4° C. After collection of the cytoplasmic fraction, nuclei were solubilized for 30 min in lysis buffer containing protease inhibitors. Lysates were centrifuged at 14,000×g for 30 min at 4° C. and supernatants were collected for NF-κB studies. To prepare whole cell lysates for phospho-Akt and phospho-IKK studies, cells were washed in ice-cold PBS and lysed in 20 mM Tris-HCl, pH 7.5, 150 mM NaCl, 1 mM Na2EDTA, 1 mM EGTA, 1% Triton, 2.5 mM sodium pyrophosphate, 1 mM β-glycerophosphate, 1 mM orthovanadate, 1 μg/ml leupeptin and 1 mM PMSF. Lysates were sonicated for 5 seconds, centrifuged at 14,000×g for 10 min at 4° C. and supernatants were collected for phospho-Akt and phospho-IKK studies. All protein concentrations were determined using the Bradford protein assay.
# Western blot analysis. Protein (20 μg per lane) was fractionated using 12% SDS-PAGE and electrophoretically transferred to PVDF membranes (Bio-Rad, Hercules, Calif.). For phospho-Akt/Akt and phospho-IKK/IKK studies, membranes were probed with anti phospho-Ser473 Akt antibody or anti-phospho-IKK antibody (1:1000, Cell signaling, Beverly, Mass.) and anti-Akt and anti-IKK antibodies (1:1000; Cell Signaling). For NF-κB nuclear translocation studies, membranes were probed with anti-NF-κB p105/p50 antibody (1:5000, Abcom, Cambridge, Mass.) or anti-NF-κB p65 antibody (1:300, Santa Cruz Biotechnology). Loading controls included anti-actin antibody (1:10,000, Santa Cruz Biotechnology, Inc. Santa Cruz, Calif.) for cytosolic fractions and anti-lamin B1 antibody (1:10,000, Abcom, Cambridge, Mass.) for nuclear fractions. Immunoreactivity was detected using either sheep anti-rabbit or sheep anti-mouse HRP-conjugated secondary antibody (Amersham Biosciences, Arlington Heights, Ill.), followed by enhanced chemiluminescence (Pierce). Autoradiographic signals were quantified using NIH Image. Experiments were repeated in triplicate.
# BV-2 cells were seeded on poly-L-Lysine coated glass coverslips and were maintained in culture for at least 24 hours before treatment with LPS+/−AE1-329. After one hour of treatment, cells were fixed with 4% paraformaldehyde and processed for immunocytochemistry using established protocols. NF-κB cellular localization was detected using rabbit anti-NF-κB p65 antibody (1:200, Santa Cruz Biotechnology) and Cy3-conjugated donkey anti-rabbit secondary antibody (Jackson ImmunoResearch Laboratories, West Grove, Pa.). Nuclei were visualized using Hoechst 33258 dye (MP Biomedicals, Solon, Ohio). Images were acquired using a Nikon Eclipse E600 microscope (Nikon Instruments, Melville, N.Y.) and a Hamamatsu Orca-ER digital camera (Hamamatsu Photonics, Bridgewater, N.J.). For quantification of nuclear NF-κB p65 levels, images were analyzed using the measurements module of Volocity 4.3.2 image analysis software (Improvision Inc., Waltham, Mass.). […] For data quantification, each data point represented the average NF-κB p65 signal from the nuclei in one field of view (>100 cells). […]
# primary human monocytes = experiment: TNF-α and IL-6 ELISA in LPS-stimulated primary human monocytes; format: cell-based; details: LPS 100 ng/ml, AE1-329 100 nM, 6 hours
# Method: Human monocyte derived macrophages were purchased from AllCells (Catalog #PB-MDM-001F: Frozen normal peripheral blood monocyte derived macrophages) and plated at a density of 23,000 cells per well in a 96 well plate. Two dilutions (1:5 and 1:10) were tested using anti-human IL6 and anti-human TNFα ELISA to measure concentrations of these two cytokines in pg/ml after 6 hours of stimulation with either vehicle alone, AE1-329 (100 nM), LPS, and LPS plus AE1-329 (100 nM).
# Primary human monocytes were stimulated with either vehicle (PBS) alone, AE1-329 (100 nM), LPS (100 ng/ml), and LPS (100 ng/ml) plus AE1-329 (100 nM). Two dilutions (1:5 and 1:10) were tested using anti-human IL6 and anti-human TNF-α ELISA to measure concentrations of these two cytokines in pg/ml after 6 hours of stimulation.
smiles,measurement,setting,value
COCc1ccccc1CC[C@H](O)/C=C/[C@H]1[C@H](O)CC(=O)[C@@H]1SCCCSCC(=O)O [AE1-329],"LPS-induced NO production, dose response","BV-2 cells; BV-2 cells, 1, 10, 100 and 1000 nM AE1-329, 24 hours",dose-dependently reduced NO production
same,nitrite concentration,"BV-2 cells; BV-2 cells, LPS 10 ng/ml + 10 nM AE1-329, 24 hours (LPS alone 21.76 μM)",6.57 µM
same,decrease of LPS-induced NO production (nitrite),"BV-2 cells; BV-2 cells, LPS 10 ng/ml, 10 nM AE1-329, 24 hours",68.9%
same,nuclear p65 immunofluorescent signal,"[1]; BV-2 cells, 60 minutes after LPS 100 ng/ml, AE1-329 100 nM",significantly attenuated
same,LPS-induced nuclear translocation of NF-κB subunits p65 and p50 (Western),"[1]; BV-2 cells, LPS 100 ng/ml, AE1-329 100 nM, vs vehicle",reduced levels of NF-κB nuclear translocation
same,"time of maximal attenuation of nuclear translocation, NF-κB p65","[1]; BV-2 cells, LPS + AE1-329",60 min
same,"time of maximal attenuation of nuclear translocation, p50","[1]; BV-2 cells, LPS + AE1-329",120 min
same,cytoplasmic levels of p65 and p50,"[1]; LPS-treated BV-2 cells, AE1-329 vs vehicle",increased
same,LPS-induced increase in IL-6 levels (ELISA),primary human monocytes,significantly reduced
same,LPS-induced increase in TNF-α levels (ELISA),primary human monocytes,entirely reversed
